From ChEMBL document CHEMBL5528050, “Discovery of a Novel Series of Homo sapiens Caseinolytic Protease P Agonists for Colorectal Adenocarcinoma Treatment via ATF3-Dependent Integrated Stress Response” (J Med Chem, 2024)
The source made the active and inactive calls. The calls are words filed in the database; no cut-off is given here.

Columns and labels:
HCT-116 [1] = assay: cells; settings: Homo sapiens, HCT-116, 72 h
Description: Antiproliferative activity against human HCT-116 cells assessed as inhibition of cell growth measured after 72 hrs by CCK-8 method

[2] = target: T1, ATP-dependent Clp protease proteolytic subunit, mitochondrial (Homo sapiens, UniProt Q16740); assay: Agonist activity at human ClpP expressed in Escherichia coli using AC-WLA-AMC as substrate measured every 5 mins for 1 hr by fluorescence based analysis
[3] = target: T1, ATP-dependent Clp protease proteolytic subunit, mitochondrial; assay: Binding affinity to human ClpP expressed in Escherichia coli assessed as dissociation constant by ITC method
[4] = Antiproliferative activity against HEK293 cells assessed as inhibition of cell growth measured after 72 hrs by CCK-8 method; format: toxicity, cell-based; settings: human
[5] = Antiproliferative activity against rat H9c2 cells assessed as inhibition of cell growth measured after 72 hrs by CCK-8 method; format: toxicity, cell-based
[6] = Antiproliferative activity against human L02 cells assessed as inhibition of cell growth measured after 72 hrs by CCK-8 method; format: toxicity, cell-based
[7] = Antiproliferative activity against human HCoEpiC cells assessed as inhibition of cell growth measured after 72 hrs by CCK-8 method; format: toxicity, cell-based
HCT-116 [8] = assay: Induction of ROS generation in human HCT-116 cells assessed as increase in intracellular ROS level measured after 48 hrs DCFH-DA staining based analysis; format: functional, cell-based
HCT-116 [9] = assay: Inhibition of mitochondrial function in human HCT-116 cells assessed as reduction in ATP production; format: functional, cell-based
Cell membrane = assay: Induction of mitochondrial membrane potential loss in human HCT-116 cells assessed as increase in green fluorescence at high dose measured after 48 hrs by JC-1 staining based microscopy analysis; format: cell membranes
HCT-116 [10] = assay: Antiproliferative activity against human HCT-116 cells assessed reduction in clone formation measured after 48 hrs by crystal violet staining based analysis; format: functional, cell-based
HCT-116 [11] = assay: Inhibition of cell migration in human HCT-116 cells at 5 to 20 uM measured after 24 to 48 hrs by microscopy based analysis; format: functional; settings: dose 5-20 µM, time 24-48 hrs
HCT-116 [12] = assay: Induction of apoptosis in human HCT-116 cells measured after 48 hrs by annexin V-FITC/7-AAD based flow cytometry analysis; format: functional, cell-based
HCT-116 [13] = assay: Induction of apoptosis in human HCT-116 cells assessed as apoptotic rate at low dose measured after 48 hrs by annexin V-FITC/7-AAD based flow cytometry analysis relative to control; format: functional
HCT-116 [14] = assay: Induction of apoptosis in human HCT-116 cells assessed as apoptotic rate at medium dose measured after 48 hrs by annexin V-FITC/7-AAD based flow cytometry analysis relative to control; format: functional
HCT-116 [15] = assay: Induction of apoptosis in human HCT-116 cells assessed as cell death at 20 uM measured after 48 hrs by annexin V-FITC/7-AAD based flow cytometry analysis relative to control; format: functional
HCT-116 [16] = assay: Induction of cell cycle arrest in human HCT-116 cells assessed as effect on number of cells at G1 phase at 5 to 20 uM measured after 48 hrs by PI staining based flow cytometry analysis; format: functional; settings: dose 5-20 µM
HCT-116 [17] = assay: Induction of cell cycle arrest in human HCT-116 cells assessed as increase in number of cells at G2 phase at 5 uM measured after 48 hrs by PI staining based flow cytometry analysis; format: functional
HCT-116 [18] = assay: Induction of cell cycle arrest in human HCT-116 cells assessed as increase in number of cells at G2 phase at high dose measured after 48 hrs by PI staining based flow cytometry analysis; format: functional
HCT-116 [19] = assay: Antiproliferative activity against ClpP knockdown human HCT-116 cells assessed as fold increase in IC50; format: functional
[20] = target: T1, ATP-dependent Clp protease proteolytic subunit, mitochondrial; settings: filed as agonist, dose 100.0 µM, time 30.0 min
SW-620 = assay: cells; settings: Homo sapiens, SW-620, 72 h
Description: Antiproliferative activity against human SW-620 cells assessed as inhibition of cell growth measured after 72 hrs by CCK-8 method

HCT-15 = assay: cells; settings: Homo sapiens, HCT-15, 72 h
Description: Antiproliferative activity against human HCT-15 cells assessed as inhibition of cell growth measured after 72 hrs by CCK-8 method

SW480 = assay: cells; settings: Homo sapiens, SW480, 72 h
Description: Antiproliferative activity against human SW480 cells assessed as inhibition of cell growth measured after 72 hrs by CCK-8 method

DLD-1 = assay: cells; settings: Homo sapiens, DLD-1, 72 h
Description: Antiproliferative activity against human DLD-1 cells assessed as inhibition of cell growth measured after 72 hrs by CCK-8 method

HCT-116 [21] = assay: Upregulation of slug expression in human HCT-116 cells measured after 48 hrs by Western blot analysis; format: functional, cell-based
[22] = Cmax in Sprague-Dawley rat at 5 mg/kg, iv by LC-MS/MS analysis; format: ADME, organism-based; settings: in vivo
[23] = AUC (0 to 12hrs) in Sprague-Dawley rat at 5 mg/kg, iv by LC-MS/MS analysis; format: ADME, organism-based; settings: in vivo
[24] = Half life in Sprague-Dawley rat at 5 mg/kg, iv by LC-MS/MS analysis; settings: in vivo
[25] = Clearance in Sprague-Dawley rat at 5 mg/kg, iv by LC-MS/MS analysis; format: ADME, organism-based; settings: in vivo
[26] = MRT (0 to 12 hrs) in Sprague-Dawley rat at 5 mg/kg, iv by LC-MS/MS analysis; format: ADME, organism-based; settings: in vivo
[27] = Cmax in Sprague-Dawley rat at 15 mg/kg, po by LC-MS/MS analysis; format: ADME, organism-based; settings: in vivo
[28] = Tmax in Sprague-Dawley rat at 15 mg/kg, po by LC-MS/MS analysis; format: ADME, organism-based; settings: in vivo
[29] = AUC (0 to 12hrs) in Sprague-Dawley rat at 15 mg/kg, po by LC-MS/MS analysis; format: ADME, organism-based; settings: in vivo
[30] = Half life in Sprague-Dawley rat at 15 mg/kg, po by LC-MS/MS analysis; settings: in vivo
[31] = MRT (0 to 12hrs) in Sprague-Dawley rat at 15 mg/kg, po by LC-MS/MS analysis; format: ADME, organism-based; settings: in vivo
[32] = Oral bioavailability in Sprague-Dawley rat at 15 mg/kg by LC-MS/MS analysis; format: ADME, organism-based; settings: in vivo

T1 sequence (Q16740 whole entry): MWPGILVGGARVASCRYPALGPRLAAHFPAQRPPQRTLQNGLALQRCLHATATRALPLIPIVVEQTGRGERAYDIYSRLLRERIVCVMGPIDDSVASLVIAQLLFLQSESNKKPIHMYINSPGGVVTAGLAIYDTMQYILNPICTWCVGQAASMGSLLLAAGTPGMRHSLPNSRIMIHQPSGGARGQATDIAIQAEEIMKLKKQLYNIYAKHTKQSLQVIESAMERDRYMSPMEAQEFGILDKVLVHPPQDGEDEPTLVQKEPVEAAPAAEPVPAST

CC1(C)CCC(NC(=O)C2CCCN(C(=O)c3cc(C(F)(F)F)cc(C(F)(F)F)c3)C2)CC1 (stereo unspecified)
IC50 (HCT-116 [1]): 80.4 µM

N#Cc1cccc(CN2CCCC(C(=O)NCc3ccc(Cl)c(Cl)c3)C2)c1 (stereo unspecified)
IC50 (HCT-116 [1]): 25.3 µM

O=C(Nc1ccc(Oc2ccccc2)cc1)C1CCCN(C(=O)c2cc(C(F)(F)F)cc(C(F)(F)F)c2)C1 (stereo unspecified)
IC50 (HCT-116 [1]): 40.1 µM

CC(ONC(=O)c1cc(C(F)(F)F)cc(C(F)(F)F)c1)C(=O)Nc1ccc(Cl)cc1 (stereo unspecified)
EC50 [2]: 0.0105 µM
Kd [3]: 8.41 µM
IC50 at 72 h [4]: 55.4 µM
IC50 at 72 h [5]: 35.5 µM
IC50 at 72 h [6]: 30.4 µM
IC50 at 72 h [7]: 61.7 µM
Activity (HCT-116 [8]): Active
inhibition (HCT-116 [9]): Active
Activity (Cell membrane): Active
Activity (HCT-116 [10]): Dose-Dependent Effect
inhibition (HCT-116 [11]): Active
Activity (HCT-116 [12]): Dose-Dependent Effect
Activity (HCT-116 [13]): 15%
Activity (HCT-116 [14]): 22%
Activity (HCT-116 [15]): 40%
Activity (HCT-116 [16]): inactive
Activity (HCT-116 [17]): 20%
Activity (HCT-116 [18]): ~40%
fold change (FC) (HCT-116 [19]): 1.5
ΔTm [20]: 4 °C
IC50 (HCT-116 [1]): 20.5 µM
IC50 (SW-620): 15.5 µM
IC50 (HCT-15): 37.5 µM
IC50 (SW480): 41.3 µM
IC50 (DLD-1): 29.8 µM

O=C(Nc1cccc(Cl)c1)C1CCCN(C(=O)c2cc(C(F)(F)F)cc(C(F)(F)F)c2)C1 (stereo unspecified)
IC50 (HCT-116 [1]): 30.5 µM

N#Cc1cccc(CN2CCCC(C(=O)NCc3ccc(C(F)(F)F)cc3)C2)c1 (stereo unspecified)
IC50 (HCT-116 [1]): 20.4 µM

N#Cc1cccc(CN2CCCC(C(=O)NCc3ccc4ccccc4c3)C2)c1 (stereo unspecified)
IC50 (HCT-116 [1]): 48.3 µM

O=C(Nc1ccc(Cl)cc1)c1cccc(NC(=O)c2cc(C(F)(F)F)cc(C(F)(F)F)c2)c1
IC50 (HCT-116 [1]): 25.3 µM

O=C(NCc1ccc(C(F)(F)F)cc1)C1=CCCN(Cc2cc(C(F)(F)F)cc(C(F)(F)F)c2)C1
IC50 (HCT-116 [1]): 25.3 µM

O=C(NCc1ccc(C(F)(F)F)cc1)C1=CCCN(C(=O)c2cc(C(F)(F)F)cc(C(F)(F)F)c2)C1
IC50 (HCT-116 [1]): 20.5 µM

O=C(NCc1ccccc1)C1=CCCN(Cc2ccccc2)C1
IC50 (HCT-116 [1]): 55.4 µM

O=C(NCc1ccc(C(F)(F)F)cc1)C1CCCN(C(=O)c2cc(C(F)(F)F)cc(C(F)(F)F)c2)C1 (stereo unspecified)
IC50 (HCT-116 [1]): 25.1 µM

CC(NC(=O)c1cc(C(F)(F)F)cc(C(F)(F)F)c1)C(=O)Nc1ccc(Cl)cc1 (stereo unspecified)
IC50 (HCT-116 [1]): 58.4 µM

O=C(Nc1ccc(Cl)cc1)C1CCCN(C(=O)c2cc(C(F)(F)F)cc(C(F)(F)F)c2)C1 (stereo unspecified)
IC50 (HCT-116 [1]): 16.7 µM

O=C(NCc1ccc(C(F)(F)F)cc1)C1=CCCN(Cc2ccccc2)C1
Activity (HCT-116 [21]): Active
IC50 (HCT-116 [1]): 50.4 µM

O=C(Nc1ccncc1)C1CCCN(C(=O)c2cc(C(F)(F)F)cc(C(F)(F)F)c2)C1 (stereo unspecified)
IC50 (HCT-116 [1]): 59.7 µM

O=C(Nc1ccc(Cl)cc1)C1=CCCN(C(=O)c2cc(C(F)(F)F)cc(C(F)(F)F)c2)C1
IC50 (HCT-116 [1]): 40.3 µM

O=C(Nc1ccc(Cl)cc1)C1CCCN(C(=O)Cc2cc(Cl)ccc2F)C1 (stereo unspecified)
IC50 (HCT-116 [1]): 67.5 µM

N#Cc1cccc(CN2CCCC(C(=O)NCc3ccc(Cl)cc3Cl)C2)c1 (stereo unspecified)
IC50 (HCT-116 [1]): 40.9 µM

O=C(Nc1ccc(Cl)c(Cl)c1)C1CCCN(C(=O)c2cc(C(F)(F)F)cc(C(F)(F)F)c2)C1 (stereo unspecified)
IC50 (HCT-116 [1]): 15.7 µM

O=C(NCc1ccc(C(F)(F)F)cc1)C1=CCCN(Cc2cccc(F)c2)C1
IC50 (HCT-116 [1]): 20.1 µM

O=C(Nc1ccc(Cl)cc1)C1CCCN(C(=O)c2cccc(-c3ccco3)c2)C1 (stereo unspecified)
IC50 (HCT-116 [1]): 76.5 µM

O=C(Nc1ccc(C(F)(F)F)cc1)C1CCCN(C(=O)c2cc(C(F)(F)F)cc(C(F)(F)F)c2)C1 (stereo unspecified)
IC50 (HCT-116 [1]): 30 µM

O=C(Nc1cc(Cl)c(Cl)c(Cl)c1)C1CCCN(C(=O)c2cc(C(F)(F)F)cc(C(F)(F)F)c2)C1 (stereo unspecified)
IC50 (HCT-116 [1]): 16.4 µM

O=C(CCNC(=O)c1cc(C(F)(F)F)cc(C(F)(F)F)c1)Nc1ccc(Cl)cc1
IC50 (HCT-116 [1]): 64.5 µM

O=C(NCCc1ccc(Cl)cc1)C1CCCN(C(=O)c2cc(C(F)(F)F)cc(C(F)(F)F)c2)C1 (stereo unspecified)
IC50 (HCT-116 [1]): 56.5 µM

O=C(NCc1ccc(C(F)(F)F)cc1)C1=CCCN(Cc2ccc(F)c(F)c2)C1
IC50 (HCT-116 [1]): 25.6 µM

O=C(NCCNC(=O)c1cc(C(F)(F)F)cc(C(F)(F)F)c1)c1ccc(Cl)cc1
IC50 (HCT-116 [1]): 76.9 µM

CC(C)(C)c1ccc(CNC(=O)C2CCCN(Cc3cccc(C#N)c3)C2)cc1 (stereo unspecified)
IC50 (HCT-116 [1]): 40 µM

N#Cc1cccc(CN2CCCC(C(=O)NCc3ccc4c(c3)OCO4)C2)c1 (stereo unspecified)
IC50 (HCT-116 [1]): 50 µM

N#Cc1cccc(CN2CCCC(C(=O)NCc3ccc(Cl)cc3)C2)c1 (stereo unspecified)
IC50 (HCT-116 [1]): 22.1 µM

O=C(Nc1ccc(Cl)cc1)C1=CCCN(Cc2ccccc2)C1
IC50 (HCT-116 [1]): 83.5 µM

Cc1ccccc1CN1C(=O)C2=C(CCN(Cc3ccccc3)C2)N2CCN=C12 [DORDAVIPRONE]
Cmax [22]: 2770 ng/mL
AUC(0-t) [23]: 1960 ng·h/mL
half-life [24]: 54 min
clearance [25]: 42.7 mL/min/kg
MRT last [26]: 54 min
Cmax [27]: 566 ng/mL
Tmax [28]: 24 min
AUC(0-t) [29]: 894 ng·h/mL
half-life [30]: 66 min
MRT last [31]: 90 min
bioavailability [32]: 15.3%

N#Cc1cccc(CN2CCC=C(C(=O)Nc3ccc(Cl)cc3)C2)c1
IC50 (HCT-116 [1]): 2.5 µM

N#Cc1cccc(CN2CCCC(C(=O)Nc3ccc(Cl)cc3)C2)c1 (stereo unspecified)
IC50 (HCT-116 [1]): 20.3 µM

O=C(NCc1ccc2c(c1)OCO2)C1CCCN(C(=O)c2cc(C(F)(F)F)cc(C(F)(F)F)c2)C1 (stereo unspecified)
IC50 (HCT-116 [1]): 95.3 µM
